Results reported in patent publication US20080194679A1, “Compositions and methods for increasing metabolic activity in animal tissue” (priority 2007, published 2008).
Marks after values point to notes of the source that are not given here.

What was measured:
[1] = Tied-off ileum section dosed with 65Zn solution; 65Zn in liver, heart and spleen by liquid scintillation; format: in vivo; conditions: non-fasted rats, 1×10^−4M solution in tied off ileum section, 2 hours post dosing
Experimental: Non-fasted rats were first anesthetized and then their intestines exposed. A 10 cm section of the ileum was tied off at both ends extending 15 cm to 5 cm proximal to the ileoceal valve. At each end, a 0.5 cm incision was made allowing the tied off section to be thoroughly washed with Ringers solution via the incisions. A solution containing ^65ZnCl2 or ^65Zn Histidine (1×10^−4M) was introduced into the tied off section. At 2 hours post dosing, the rats were killed by cervical dislocation. Their livers, hearts, and spleens were taken, weighed, dissected, and assayed by liquid scintillation for ^65Zn.

[2] = Isotope study: deposition of 65zinc into male sex organ tissues after single intravenous dose; format: in vivo; conditions: zinc sufficient adult male rats, single I.V. dose 0.06 mg zinc, 24 hours post-dosing
Experimental: In an isotope study, three groups of zinc sufficient adult male rats (6/group) received a single intravenous (I.V.) dose of 0.06 mg zinc containing 10 microcurines of zinc chelated to either arginine or glycine or as zinc chloride (ZnCl2). The arginine contained about twice as much nitrogen bonded to the zinc atom as did glycine. The ZnCl2 had no nitrogen bonded to the zinc. Twenty four hours post-dosing, all animals were sacrificed and their testes, epididymis, and seminal vesicles were assayed for zinc. The male sex organs were targeted for these zinc assays because of the dominant role zinc plays in their proper functioning. In theory, the uptake of zinc from the three sources into the tissues should have been equivalent since all three sources were administered by I.V. and none of the animals was zinc deficient.
As noted above, arginine has about twice as much nitrogen in the ligand as glycine.

[3] = chicks, 21 days, 40 mg zinc per day per kg feed
Experimental: (§1) A group of one day old chicks were administered 40 mg zinc per day per kg feed for 21 consecutive days. […] At the end of 21 days, all chicks in all groups were killed, freeze dried, and a whole body assay for zinc performed.

[4] = chicks, 21 Day, 40 mg zinc per day per kg feed
Experimental: as §1

[5] = Iron source fed to gestating sows; piglet blood hemoglobin, hematocrit and serum ferritin at farrowing; format: in vivo, sows / piglets; conditions: sows fed iron source daily from 4 weeks before farrowing
From the text: Ferrous iron was chelated to various high nitrogen-containing amino acid chelates. Six grams of such a chelate formula (0.6 g Fe) was fed daily to gestating sows beginning 4 weeks before expected farrowing. Another group of gestating sows received 2 g daily of ferrous fumarate (0.67 g Fe) for the same period. One week prior to farrowing, the dosages of iron were doubled for each group.
At farrowing blood samples were taken from each piglet and assayed for hemoglobin, hematocrit, and serum ferritin. The hemoglobin and hematocrit represent current iron status but serum ferritin represents iron storage for future use.

Row | Compound | zinc retention in the body (in words) [3] | Body Weight [4] [g] | Gain/Feed [4] | further results
1 | [Cl-].[Cl-].[Zn+2] [^65Zn Chloride, zinc chloride] | – | – | – | ^65Zn in tissue: Heart ([1]; heart): 1.00 ± 0.33 number × 10^−10 Zn/gm; ^65Zn in tissue: Liver ([1]; liver): 8.67 ± 5.67 number × 10^−10 Zn/gm; ^65Zn in tissue: Spleen ([1]; spleen): 3.50 ± 0.25 number × 10^−10 Zn/gm; Deposition of ^65zinc into tissue: Epididymis ([2]; epididymis): Negligible; Deposition of ^65zinc into tissue: Seminal Vesicle ([2]; seminal vesicle): Negligible; Deposition of ^65zinc into tissue: Testes ([2]; testes): Negligible
2 | zinc bisarginate (2:1) [Zn Bisarginate (2:1)] | increased over zinc bisglycinate (2:1) significantly | 829.15 | .078 g | –
3 | O=[N+]([O-])[O-].O=[N+]([O-])[O-].[Zn+2] [Zn Nitrate, zinc nitrate] | similar | 734.98 | 0.74 g | –
4 | O=C([O-])/C=C/C(=O)[O-].[Fe+2] [Ferrous Fumarate, ferrous fumarate] | – | – | – | Serum Ferritin ([5]; a/b P < 0.01): 20.1^b ng/ml; Hematocrit ([5]; doubled in the last week): 33.2%; Hemoglobin ([5]; doubled in the last week): 9.7 g/dL
5 | NCC(=O)[O-].NCC(=O)[O-].[Zn+2] [Zn Bisglycinate (2:1), zinc bisglycinate (2:1)] | increased to some degree | 812.55 | .078 g | –
6 | zinc glycinate (1:1) [Zn Glycinate (1:1)] | similar | 817.08 | 0.77 g | –
